One test relates to SJSA-1. The test can be described thus: cells. Particulars: Homo sapiens.
The target in test [1] is E3 ubiquitin-protein ligase Mdm2 (Homo sapiens, UniProt Q00987). The test can be described thus: Inhibition of MDM2 (unknown origin).
Chain of E3 ubiquitin-protein ligase Mdm2 (Q00987 whole entry): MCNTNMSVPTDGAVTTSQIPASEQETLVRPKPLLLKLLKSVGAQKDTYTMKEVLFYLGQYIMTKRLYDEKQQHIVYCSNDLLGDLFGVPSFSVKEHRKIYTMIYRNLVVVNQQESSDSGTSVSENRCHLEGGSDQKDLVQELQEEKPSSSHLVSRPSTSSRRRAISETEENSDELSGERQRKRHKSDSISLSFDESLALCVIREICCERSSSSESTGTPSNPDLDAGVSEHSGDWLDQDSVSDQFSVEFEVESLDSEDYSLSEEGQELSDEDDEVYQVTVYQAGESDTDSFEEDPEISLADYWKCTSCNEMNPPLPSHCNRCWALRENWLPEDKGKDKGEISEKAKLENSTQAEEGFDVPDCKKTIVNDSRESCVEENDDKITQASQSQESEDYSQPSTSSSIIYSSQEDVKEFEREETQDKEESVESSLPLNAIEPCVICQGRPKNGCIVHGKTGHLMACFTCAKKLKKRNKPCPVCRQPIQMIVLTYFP

What is called IC50 is the midpoint of a concentration-inhibition curve. A low value points to greater potency. Molecule `CN(C[C@H](C1CC1)N1C(=O)[C@@](C)(CC(=O)O)C[C@H](c2cccc(Cl)c2)[C@H]1c1ccc(Cl)cc1)S(=O)(=O)C1CC1` returned an IC50 in the test with SJSA-1 of 5 nM.
As for `CC1(C)CCC2(CC1)N[C@@H](C(=O)N[C@@H]1CC[C@@H](C(N)=O)OC1)[C@H](c1ccnc(Cl)c1F)[C@]21C(=O)Nc2cc(Cl)ccc21`, half-maximal inhibition in test [1] (IC50) required 5.57 nM. This lies in the single-digit nanomolar range.
On the same count and under the same terms, next, `Nc1ccn([C@@H]2O[C@H](CO)[C@@H](O)[C@@H]2O)c(=O)n1` [CYTARABINE]: 20 nM.

These data come from ChEMBL document CHEMBL4265957, “The development of piperidinones as potent MDM2-P53 protein-protein interaction inhibitors for cancer therapy” (Eur J Med Chem, 2018).
